# Results reported in patent US20230026232A1, “AHR INHIBITORS AND USES THEREOF” (Ikena Oncology, Inc., priority 2019, published 2023).
# Key:
# CT26.WT = CT26.WT syngeneic colorectal cancer model, tumor growth, survival and re-challenge; assay type: in vivo, Balb/cJ mice
# Description: The effect of single agent Compound A, and Compound A in combination with anti-PD-1 antibody (BioXcell RMP1-14) on TGI and tumor survival was evaluated in the CT26.WT syngeneic model of colorectal cancer. Balb/cJ female mice were inoculated subcutaneously with tumor cells and 4 days after inoculation, Compound A (10 mg/kg or 25 mg/kg) or Vehicle was administered orally QD for a total of 53 doses. Concurrently, anti-PD-1 antibody (10 mg/kg) was administered IP twice a week for a total of 5 doses.
# At ≥95 days after the appearance of CRs in mice treated with the combination of Compound A and anti-PD-1 antibody, the responder animals were re-challenged with CT26.WT cells. Five naïve mice were also injected with CT26.WT cells as a positive control for tumor formation.
# [1] = Solubility of bulk API in biorelevant media by HPLC; assay type: physicochemical; settings: thermodynamic from solid, up to 24 hours
# Description: Solubility of bulk APIs was conducted in various biorelevant media. Small amounts of API were suspended in media and continuously agitated at room temperature for a period up to 24 hours. Samples were centrifuged to pellet out undissolved solids and the resulting supernatant was sampled, diluted, and analyzed by HPLC utilizing the short-assay method sued for dissolution sample analysis. Both forms show poor gastric solubility, with the maleate salt displaying an order of magnitude larger solubility in intestinal media.
# [2] = Two stage gastric transfer non-sink dissolution test (0.1N HCl then FaSSIF); assay type: physicochemical; settings: 100 RPM
# Description: In vitro drug dissolution performance for both API forms and each SDI was evaluated by the two stage ‘gastric transfer’ non-sink dissolution test (Table 8), which simulates pH and bile salt concentrations for both gastric and intestinal exposure in a sample to perform assay. Pre-weighed SDI powder is briefly suspended in media (e.g., by 10 sec vortex mixing with 4.0 mL media) and transferred to a pre-heated (37° C.) volume of 50 mL of 0.1N HCl (aq) (simulated gastric fluid or SGF, pH ˜1.0, without pepsin or bile salts), in a USP Type 2 mini-vessel (100 mL total vessel volume) while stirring (paddles) at 100 rpm. […] Initial Compound A API measurements and SDI dissolution samples were determined utilizing a HPLC method (Table 7). […]
compound,measurement,setting,value
"CC(C)c1cnn2c(N[C@@H]3CCc4[nH]c5ccccc5c4C3)nc(-c3cncc(F)c3)nc12 [Compound A, (R)—N-(2-(5-fluoropyridin-3-yl)-8-isopropylpyrazolo[1,5-a][1,3,5]triazin-4-yl)-2,3,4,9-tetrahydro-1H-carbazol-3-amine]",TGI relative to vehicle treated mice,CT26.WT; Compound A 10 mg/kg PO QD (alone or with anti-PD-1 10 mg/kg IP twice a week),39.8%
same,TGI relative to vehicle treated mice,CT26.WT; Compound A 25 mg/kg PO QD (alone or with anti-PD-1 10 mg/kg IP twice a week),40.9%
same,solubility,"[1]; simulated gastric fluid, 0.1N HCl, room temperature",< 0.5 µg/mL
same,solubility,"[1]; FaSSIF, pH 6.8, room temperature",1.4 µg/mL
same,AUC35-210 FaSSIF (area under the curve after transfer to FaSSIF from 35 to 210 minutes),[2],2100 min*μgA/mL
same,C210 (drug concentration at 180 minutes after transfer to FaSSIF),[2],4.5 μgA/mL
